Laboratory results reported in patent US20050014751A1, “Use of n-acyl homoserine lactones for the treatment of insulitis” (priority 2001, published 2005).

Assays:
diabetes in NOD mice = test: Alleviation of diabetes in NOD mice (incidence of diabetes, Uristix); format: in vivo; details: above 6 mMol glucose/l = diabetes
Description: The ability of the lead compound (OdDHL) to alleviate diabetes in NOD mice was determined by treating the mice 3 times per week for 4 weeks at 30 mg/kg as above. DMSO and OHHL were used as controls.
Diabetes was diagnosed using Uristix and a level of above 6 mMol glucose/I was taken to indicate the presence of diabetes.

murine splenocytes = test: ConA mitogen-stimulated proliferation of murine splenocytes; format: cell-based, BALB/c mice; details: ConA 1 μg/ml, 100,000 spleen cells, 1 mM to 0.1 μM
Description: The concanavalin A (ConA) cell proliferation assay was used to assess the effect of homoserine lactone (HSL) compounds on T-cell activation and proliferation. Proliferation was assessed by the incorporation of [^3H]-thymidine into DNA. Eight-week-old female BALB/c mice were obtained from Harlan (Bicester, Oxon, UK) and given food and water ad libitum. Splenocyte suspensions were prepared by removing the spleens and placing them into. RPMI 1640 medium. The spleens were forced through 70-μm-pore-size wire gauzes using the plunger from a 5-ml syringe to produce a single cell suspension. The cells were pelleted by centrifugation, and erythrocytes were lysed with 0.017M Tris, 0.144M ammonium chloride buffer, pH 7.2. Leucocytes were washed twice with RPMI 1640 medium with 2% (vol/vol) foetal calf serum (FCS) and resuspended in complete cell culture medium (CTCM) consisting of RPMI 1640 medium with 5% FCS, 2 mM L-glutamine, and 5×10^−5 M 2-mercaptoethanol. […] After the addition of 25 μl of MicroScint-O (Packard) to each well the filters were counted with the Packard TopCount scintillation counter. […]
(§1) In the cell culture assays the number of cells used (mouse splenocytes and human PBMC) was initially optimised to 100,000 cells per well. The optimal dose of ConA of 1 μg/ml used in the cell proliferation assays was determined from ConA titration curves. […]

TNF-alpha production = TNF-alpha production from LPS-stimulated human PBMC; format: cell-based
Description: Bacterial lipopolysaccharide (LPS) stimulates the production of a variety of cytokines, including TNF-alpha, from human PBMC; these cytokines in turn influence the development of T cells, supporting a T helper 1 conducive milieu. Human PBMC prepared from whole blood by buoyant density centrifugation were resuspended in CTCM. HSL compounds were again tested at similar dilutions as for murine splenocytes in 200 μl of CTCM, containing 5×10^−5 μg/ml LPS Escherichia coli strain 055:B5 (Sigma, Poole, UK) and 100,000 PBMC. Following incubation for 24 h at 37° C. in 5% CO2-air, the cell culture supernatants were collected and tested for TNF-alpha levels by ‘sandwich’ ELISA. Briefly, 96-well Nunc MaxiSorp (Life Technologies, Paisley, UK) plates were coated with 50 μl of a 2 μg/ml solution of mouse anti-human TNF-alpha monoclonal antibody (Pharmingen, UK) in 0.05 M carbonate/bicarbonate buffer, pH 9.6 overnight at 4° C. After washing the plates three times with PBS-Tween, which contained phosphate buffered saline (PBS) with 0.5% (vol/vol) Tween 20 (Sigma, Poole, UK), the plates were blocked with 1% (wt/vol) bovine serum albumin (BSA) (Sigma, Poole, UK) at room temperature for 2 h. […] Following four washes, the bound biotinylated antibody was detected with 50 μl of a 1:1,000 dilution of Streptavidin-peroxidase (Pharmingen, UK). […] The enzyme reaction was stopped with 50 μl of 2.5 M H2SO4 after an incubation of 10 minutes at room temperature and the development was read at 450 nm with a spectrophotometric 96-well plate reader (Dynex). […]
Similar studies were carried out using, as the HSL compounds, N-(12-bromo-3-oxododecanoyl)-L-homoserine lactone (12BrOdDHL) and N-(12-hydroxy-3-oxododecanoyl)-L-homoserine lactone (12hydroxyOdDHL) and the plots for these are shown in FIG. 9. […] The IC50 value for dexamethasone was determined to be 500.
as §1

human PBMC = test: ConA mitogen-stimulated proliferation of human PBMC; format: cell-based; details: ConA 1 μg/ml, 100,000 PBMC
Description: Blood specimens were obtained with consent from healthy human volunteers. Human peripheral blood mononuclear cells (PBMC) were isolated from heparinised whole blood by buoyant density centrifugation over Histopaque 1077 (Sigma, Poole, UK) at 600 g for 20 minutes. PBMC harvested from the ‘buffy’ layers were washed twice with RPMI 1640 medium and resuspended in CTCM. HSL compounds were tested at similar dilutions as for murine splenocytes in 200 μl of CTCM, containing 1 μg/ml of ConA and 100,000 PBMC. Human PBMC were incubated for 48 h at 37° C. in 5% CO2-air, followed by pulsing with 0.25 μCi [^3H]-thymidine (see above). After a further incubation of 24 h cells were harvested onto fibreglass filters and then counted in the presence of MicroScint-O with the Packard TopCount.
Concanavalin induced cell proliferation of human peripheral blood mononuclear cells (PBMC) was tracked, as described in I above, by a measurement of counts per minute using the scintillation counter. The inhibitory effect of an HSL compound being tested on cell proliferation was indicated by a reduction in counts per minute. […]
as §1

Question: For `CCCC(=O)CC(=O)N[C@H]1CCOC1=O` [OHHL, N-(3-oxohexanoyl)-L-homoserine lactone, reference compound], which incidence of diabetes (diabetes in NOD mice; Week of Experiment 20, 30 mg/kg 3 times per week for 4 weeks) is on record?
Answer: The incidence of diabetes was 7/10.

Question: What about the incidence of diabetes (diabetes in NOD mice; Week of Experiment 30, 30 mg/kg 3 times per week for 4 weeks, week 30 of experiment) of the same molecule?
Answer: The incidence of diabetes was 12/20.

Question: For `CCCCCC(=O)CC(=O)N[C@H]1CCOC1=O` [OOHL, N-(3-oxooctanoyl)-L-homoserine lactone, reference compound], which “inhibition of splenocyte proliferation ([3H]-thymidine cpm, FIG. 6)” value (murine splenocytes) is on record?
Answer: Its value is “failed to inhibit proliferation”.

Question: What does the source list for `CCCCCCCCCCCC(=O)CC(=O)N[C@H]1CCOC1=O` [OtDHL, N-(3-oxotetradecanoyl)-L-homoserine lactone]?
Answer: inhibition of TNF-α secretion (FIG. 8) (TNF-alpha production; LPS 5×10^−5 μg/ml, 100,000 PBMC, 24 h, ELISA): inhibited the secretion; inhibition of proliferation of human PBMC ([3H]-thymidine cpm, FIG. 7) (human PBMC): inhibited proliferation

Question: Which IC50 (TNF-alpha production; LPS-stimulated human PBMC, unit from the IC50 definition, read-out: IC50, concentration which inhibits TNF-α secretion by 50%) does the source give for `C[C@@H]1C[C@H]2[C@@H]3CCC4=CC(=O)C=C[C@]4(C)[C@@]3(F)[C@@H](O)C[C@]2(C)[C@@]1(O)C(=O)CO` [dexamethasone, reference compound] here?
Answer: Its IC50 is 500 µM.
